Measured values as given in patent US20120214778A1 (priority 2009, published 2012).

Assays:
[1] = CONFIRM phase III study: safety and tolerability (adverse events); assay type: in vivo, postmenopausal women
Source text: Outcome variables for safety were frequency and severity of adverse events (AEs), including pre-specified AEs of interest.
Patients could be discontinued from study treatment and assessments at any time at the discretion of the investigators. Patients were also free to discontinue their participation in the study at any time, without prejudice to further treatment. Specific reasons for discontinuing a patient from this study, and the procedures to be followed when a patient discontinued or was incorrectly enrolled, are listed in Section 3.3.5 of the CSP. For patients who discontinued, it was noted whether they were assessed after study medication was stopped, and whether they were asked about the reason(s) for their discontinuation and about the presence of any adverse events (AEs). If possible, they were seen and assessed by an investigator. AEs were followed up for 56 days after the last injection.

[2] = system: advanced breast cancer; details: 250 mg, cited from earlier work
[3] = system: oestrogen receptor positive advanced breast cancer; experiment: CONFIRM phase III study, fulvestrant 500 mg vs 250 mg: efficacy; details: for Number progressed / Number progressed (%): progressed or died at data cut-off; for Median DoR: from randomisation, patients with OR;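 for all read-outs here: efficacy outcomes summarised by randomised treatment arm using the full analysis set of patients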
Protocol: The primary outcome variable TTP; secondary variables were ORR, CBR, DoR, DoCB and OS.
For the primary endpoint TTP, the primary analysis was an unadjusted log-rank test and the secondary analysis was a Cox proportional hazard model, adjusted for treatment and other predefined covariates.
For OS, the unadjusted log-rank test was performed. For ORR and CBR, a logistic regression model with treatment factor only was fitted. […] For HRQoL endpoints, a longitudinal model with treatment and other covariates was used.
For efficacy and HRQoL endpoints, summaries and analyses were carried out according to the randomised treatment i.e., using the Full Analysis Set. For safety endpoints, summaries and analyses were carried out according to the treatment actually received, i.e., using the safety analysis set. The primary endpoint was also analysed in the per protocol set (PPS).
Time to progression is the time between randomisation and the earliest of progression or death from any cause.

C[C@]12CC[C@@H]3c4ccc(O)cc4C[C@@H](CCCCCCCCC[S+]([O-])CCCC(F)(F)C(F)(F)F)[C@H]3[C@@H]1CC[C@@H]2O (stereo partly drawn) [fulvestrant, 7alpha-[9-(4,4,5,5,5-pentafluoropentylsulfinyl)-nonyl]estra-1,3,5, (10)-triene-3, 17beta-diol]
gastrointestinal disturbances (pre-specified AE), patients ([1]; 250 mg): approximately 20%
joint disorders (pre-specified AE), patients ([1]; 250 mg): ~19%
gastrointestinal disturbances (pre-specified AE), patients ([1]; 500 mg): approximately 20%
joint disorders (pre-specified AE), patients ([1]; 500 mg): ~19%
tolerability ([1]; 500 mg): well tolerated
dose dependence of adverse events ([1]; 500 mg vs 250 mg): no evidence for dose dependence for any AE
efficacy compared with anastrozole ([2]; Studies 20/21): non-inferior to anastrozole
Median TTP ([2]; combined analysis of Studies 20/21): 5.5 months
Time to progression (months): 25% quartile ([3]; 250 mg): 2.7 months
Time to progression (months): 75% quartile ([3]; 250 mg): 11.9 months
expected DoCB (EDoCB) ([3]; 250 mg): 7.24 months
proportion of patients with a best objective response of progressive disease ([3]; 250 mg): 44.7%
Median TTP ([3]; 250 mg im every 28 days, N = 374): 5.5 months
Percentage of patients progression free at 6 months ([3]; 250 mg): 45%
% patients progression free at 12 months ([3]; 250 mg): 25%
% patients progression free at 12 months ([3]; 250 mg, listed as Fulvestrant): 25%
Percentage of patients progression free at 18 months ([3]; 250 mg): 14%
% patients alive at 24 months ([3]; 250 mg): fulvestrant 250 mg = 49%
Percentage of patients progression free at 24 months ([3]; 250 mg): 11%
Number progressed ([3]; 250 mg, N = 374): 321
Number progressed (%) ([3]; 250 mg, N = 374): 85.8%
Median DoR ([3]; 250 mg): 250 mg = 16.4 months
Time to progression (months): 25% quartile ([3]; 500 mg): 2.8 months
Time to progression (months): 75% quartile ([3]; 500 mg): 16.6 months
expected DoCB (EDoCB) ([3]; 500 mg): 9.83 months
proportion of patients with a best objective response of progressive disease ([3]; 500 mg): 38.7%
reduction in risk of death ([3]; 500 mg compared with 250 mg): 16%
reduction in risk of progression ([3]; 500 mg compared with 250 mg): 20%
Median TTP ([3]; 500 mg im days 0, 14, 28 then every 28 days, N = 362): 6.5 months
Ratio of EDoR (95% CI) ([3]; 500 mg vs 250 mg, from randomisation to progression): Ratio of EDoR = 0.894 (95% CI 0.479-1.667); p = 0.724
Percentage of patients progression free at 6 months ([3]; 500 mg): 51%
% patients progression free at 12 months ([3]; 500 mg): 34%
% patients progression free at 12 months ([3]; 500 mg, listed as Fulvestrant): 34%
Percentage of patients progression free at 18 months ([3]; 500 mg): 23%
% patients alive at 24 months ([3]; 500 mg): % patients alive at 24 months: fulvestrant 500 mg = 53%;
Percentage of patients progression free at 24 months ([3]; 500 mg): 16%
Number progressed ([3]; 500 mg, N = 362): 297
Number progressed (%) ([3]; 500 mg, N = 362): 82.0%
Median DoR ([3]; 500 mg): Median DoR^c: fulvestrant 500 mg = 19.4 months; fulvestrant
